In series [1] the test system is HIV-1 virus strain RF in CEM-SS cells. In words: HIV-1 cytopathicity assay. The class given is cell-based. The conditions noted are these: HIV-1RF. (Protection from cytopathic effect is a common read-out in antiviral testing.)
Series [2] has as its target RNase H-deficient p66^EQ/p51 HIV-1 RT (Human immunodeficiency virus type 1 group M subtype B, UniProt P04585, E1065Q). Briefly: DNA-dependent DNA polymerase assay, RNase H mutant p66^E478Q/p51. In kind it is biochemical. The following applies: inhibitor 20 µM.
Series [3] has as its target RNase H-deficient p66^DA/p51 HIV-1 RT (Human immunodeficiency virus type 1 group M subtype B, UniProt P04585, D1136A). In words: DNA-dependent DNA polymerase assay, RNase H mutant p66^D549A/p51. The class given is biochemical. The following applies: inhibitor 20 µM.

Marks after values point to notes of the source that are not given here.

“2,7-dihydroxy-4-isopropyl-cyclohepta-2,4,6-triene [β-Thujaplicinol, reference compound]”: in series [1], the “protection against the cytopathic effect of HIV (in words)” value (shortened to “protection against the cytopathic effect”) is listed as “no protection against the cytopathic effect of HIV”.

`Cc1cc(O)c(=O)c(O)c2c1C[C@@H](C(C)(O)CN1CCCCC1)CC2` (mixture of isomers) [Compound 1, 5,7-Dihydroxy-2-(1-hydroxy-1-methyl-2-piperidin-1-yl-ethyl)-9-methyl-1,2,3,4-tetrahydro benzocyclohepten-6-one]: in series [1], the “In vitro therapeutic index (CC50/EC50)” value is 4.9 and the “protection against the cytopathic effect” value is on record as “protection against the cytopathicity of the virus”.

Regarding `Cc1cc(O)c(=O)c(O)c2c1C[C@@H](C(C)(O)Cn1ccnc1)CC2` (mixture of isomers) [Compound 2, 5,7-Dihydroxy-2-(1-hydroxy-2-imadazol-1-yl-1-methyl-ethyl)-9-methyl-1,2,3,4-tetrahydro benzocyclohepten-6-one], in series [1], the “protection against the cytopathic effect” value is reported as “protection against the cytopathicity of the virus”.

As to `CCN(CC)CC(C)(O)[C@H]1CCc2c(c(C)cc(O)c(=O)c2O)C1` (mixture of isomers) [Compound 3, 2-(2-Diethylamino-1-hydroxy-1-methyl-ethyl)-5,7-dihydroxy-9-methyl-1,2,3,4-tetrahydrobenzocyclohepten-6-one], the “protection against the cytopathic effect” value in series [1] is listed as “slight protection against cytopathicity”. In series [1] (highest concentration 50 µM), the “Viral Replication EC50 column, protective effect class” value is under 50% ^c.

For `Cc1cc(O)c(=O)c(O)c2c1C[C@@H](C(C)(O)CNCc1ccccc1F)CC2` (mixture of isomers) [Compound 4, 2-[2-(2-Fluoro-benzylamino)-1-hydroxy-1-methyl-ethyl]-5,7-dihydroxy-9-methyl-1,2,3,4-tetrahydrobenzocyclohepten-6-one], the “protection against the cytopathic effect” value in series [1] is given as “no protection against virus cytopathicity”.

Consider `Cc1cc(O)c(=O)c(O)c2c1C[C@@H](C(C)(O)CNc1ccccc1)CC2` (mixture of isomers) [Compound 5, 5,7-Dihydroxy-2-(1-hydroxy-1-methyl-2-phenylamino-ethyl)-9-methyl-1,2,3,4-tetrahydrobenzocyclohepten-6-one], for which the “inhibition of DNA-dependent DNA polymerase activity (in words)” value in series [2] was “significantly and consistently inhibited”; in series [3], “significantly and consistently inhibited”. In addition, in series [1], the “protection against the cytopathic effect” value was “protection against the cytopathicity of the virus”.

Consider `CCSCC(C)(O)[C@H]1CCc2c(c(C)cc(O)c(=O)c2O)C1` (mixture of isomers) [Compound 6, 2-(2-Ethylsulfanyl-1-hydroxy-1-methyl-ethyl)-5,7-dihydroxy-9-methyl-1,2,3,4-tetrahydrobenzocyclohepten-6-one], for which the “protection against the cytopathic effect” value in series [1] was “slight protection against cytopathicity”.

On to `Cc1cc(O)c(=O)c(O)c2c1C[C@@H](C(C)(O)CSc1ccccc1)CC2` (mixture of isomers) [Compound 7, 5,7-Dihydroxy-2-(1-hydroxy-1-methyl-2-phenylsulfanyl-ethyl)-9-methyl-1,2,3,4-tetrahydrobenzocyclohepten-6-one], for which the “protection against the cytopathic effect” value in series [1] is reported as “protection against the cytopathicity of the virus”.

In the case of `Cc1cc(O)c(=O)c(O)c2c1C[C@@H](C(C)(O)CSCc1ccccc1)CC2` (mixture of isomers) [Compound 8, 2-(2-Benzylsulfanyl-1-hydroxy-1-methyl-ethyl)-5,7-dihydroxy-9-methyl-1,2,3,4-tetrahydrobenzocyclohepten-6-one], the “protection against the cytopathic effect” value in series [1] is recorded as “protection against the cytopathicity of the virus”.

In the case of `CCS(=O)(=O)CC(C)(O)[C@H]1CCc2c(c(C)cc(O)c(=O)c2O)C1` (mixture of isomers) [Compound 9, 2-(2-Ethanesulfonyl-1-hydroxy-1-methyl-ethyl)-5,7-dihydroxy-9-methyl-1,2,3,4-tetrahydrobenzocyclohepten-6-one], the “protection against the cytopathic effect” value in series [1] is recorded as “slight protection against cytopathicity”.

On to `Cc1cc(O)c(=O)c(O)c2c1C[C@@H](C(C)O)CC2` (mixture of isomers) [Compound 13, 5,7-Dihydroxy-2-(1-hydroxy-ethyl)-9-methyl-1,2,3,4-tetrahydrobenzocyclohepten-6-one], for which, in series [1], the “protection against the cytopathic effect” value is “protection against the cytopathicity of the virus”.

For the compound `Cc1cc(O)c(=O)c(O)c2c1C[C@@H](C(C)NCc1ccccc1)CC2` (mixture of isomers) [Compound 14, 2-(1-Benzylamino-ethyl)-5,7-Dihydroxy-9-methyl-1,2,3,4-tetrahydrobenzocyclohepten-6-one], the “protection against the cytopathic effect” value in series [1] was “protection against the cytopathicity of the virus”.

As to `Cc1cc(O)c(=O)c(O)c2c1CC(C(C)(O)CO)CC2` (stereo not drawn) [Compound 12, 2-(1,2-Dihydroxy-1-methyl-ethyl)-5,7-dihydroxy-9-methyl-1,2,3,4-tetrahydrobenzocyclohepten-6-one], the “protection against the cytopathic effect” value in series [1] was “no protection against virus cytopathicity”.

Regarding `C=C(C)[C@H]1CCc2c(c(C)cc(O)c(=O)c2O)C1` [Manicol, 5,7-dihydroxy-2-isopropenyl-9-methyl-1,2,3,4-tetrahydro-benzocyclohepten-6-one, reference compound], the “protection against the cytopathic effect” value in series [1] was “no protection against the cytopathic effect of HIV”.

For the origin of these results see publication PMC3133734 (Journal of medicinal chemistry, 2011).
